From patent US11998540B2, “Compositions and methods for treating drug-tolerant glioblastoma” (THE GENERAL HOSPITAL CORPORATION, priority 2015, dated 2024)
pIC50: −log10 of the molar value. Entries after “also recorded” stand apart in the source; their conditions may differ.

How the values were obtained:
GSC8 [1] = assay: Cell growth assay ([…]-GLO), GSC8 naïve; assay type: cell-based, human; conditions: for sensitivity / effect on cell growth (dose-response): 4 day treatment, GSC8 naïve
Experimental: (§1) Patient-derived GSC culture lines were maintained in Neurobasal medium (Life Technologies) supplemented with N2/B27, penicillin/streptomycin (Life Technologies), GlutaMAX (Life Technologies), recombinant human EGF (20 ng/mL, R & D systems), and recombinant human FGF2 (20 ng/mL, R & D systems). For drug persister cultures, fresh compound and media were replenished every 4-6 days.
(§2) Freshly dissociated single cell suspensions were plated (96-well) in triplicate or quadruplicate at 1,000 to 10,000 cells/well for testing. For 4 day growth assays, […]-GLO® Luminescent Cell Viability Assay (Promega) was added to wells and end point luminescence was measured (BioTek Synergy HT Platereader). For 12 day assays, 1× compound in media was added at day 4 and all wells were replated with fresh media and compound at day 8 before viability was measured at day 12. For each inhibitor, n=3 replicates were used for each concentration and was repeated in two to four independent experiments.

GSC8^Per = assay: Cell growth assay (CELLTITER-GLO), dasatinib persisters GSC8^Per; assay type: cell-based, human; conditions: for growth, 12 day treatment: GSC8^Per vs GSC8 naïve; for sensitivity / effect on cell growth (dose-response): 4 day treatment, GSC8^Per (>8 weeks dasatinib)
Experimental: as §1, §2

H3K4me3 = H3K4me3 ChIP-seq in GSC8; assay type: cell-based, human; conditions: for H3K4me3 peak width / level: naïve GSCs, KDM5-C70 2.5 μM or GSKJ4 1.5 μM, 4 d
Experimental: Chromatin Immunoprecipitation (ChIP) was performed as previously described (Suvà et al., 2014). Briefly, formaldehyde-fixed cells were lysed and sheared (Branson […]) on wet ice. The sheared chromatin was cleared and incubated overnight at 4° C. with the following antibodies: H3K4me3 (Millipore, 07-473, Lot 2207275), H3K27me3 (Millipore, 07-449, lot 2382150), H3K27ac (Active Motif, 39133 lot 25812006), RBPJ (Abcam, ab25949, lot GR169397-1), and cleaved Notch1 (CST, 4147, lot #4). Antibody-chromatin complexes were immunoprecipitated with protein G magnetic Dynal beads (Life Technologies), washed, eluted, reverse crosslinked, and treated with RNAse A followed by proteinase K. ChIP DNA was purified using Ampure XP beads (Beckmann Coulter) and then used to prepare sequencing libraries for sequencing with the Next-Seq Illumina genome analyzer. Reads were aligned to hg19 using BWA (Li and Durbin, 2009) and identical ChIP-seq sequence reads were collapsed to avoid PCR duplicates. In order to avoid possible saturation biases, reads were downsampled to approximately similar numbers ( 20 million reads). Peaks were called using HOMER v4.6 (Heinz et al., 2010) using matched inputs with the following parameters: H3K4me3, -histone -tagThreshold 30; H3K27ac, -histone -tagThreshold 50; H3K27me3, -histone -size 3000 -[…] 0.1; Notch1 ICD, -factor; and RBPJ, -factor. […] Quantification of the H3K27me3 ChIP-seq signals, using fore- and background normalization, was essentially performed as outlined in (Zhu et al., 2013) with few modifications. To exclude genomic regions with potential copy number aberrations, read counts derived from whole cell extracts ChIP-seq within 5 kb genomic windows were quantified. Read counts were performed using interval overlap functions of the R package Genomic Ranges (Lawrence et al., 2013). To compute normalization constants, all genomic windows with read counts equal to 0 or greater than 3 standard deviations from the mean were excluded from the analysis. For a given H3K27me3 ChIP-seq data set, the background constant was estimated as the median of the read count distribution within 5 kb windows overlapping the 5% most highly expressed genes, as active genes are considered to be devoid of repressive chromatin modifications. The foreground signal was estimated as the median of the read count distribution within 5 kb windows centered around each called peak and subtracting the background signal. To quantify H3K27me3 signal within 5 kb regions of interest, the background signal was subtracted from the corresponding read count and the resulting value divided by the foreground signal. […] In order to quantify ChIP-seq intensities within genomic regions of different sizes (e.g. genes), the obtained normalization constants were scaled accordingly. […]

H3K27me3 = H3K27me3 ChIP-seq in GSC8; assay type: cell-based, human
Experimental: Chromatin Immunoprecipitation (ChIP) was performed as previously described (Suvà et al., 2014). Briefly, formaldehyde-fixed cells were lysed and sheared (Branson […]) on wet ice. The sheared chromatin was cleared and incubated overnight at 4° C. with the following antibodies: H3K4me3 (Millipore, 07-473, Lot 2207275), H3K27me3 (Millipore, 07-449, lot 2382150), H3K27ac (Active Motif, 39133 lot 25812006), RBPJ (Abcam, ab25949, lot GR169397-1), and cleaved Notch1 (CST, 4147, lot #4). Antibody-chromatin complexes were immunoprecipitated with protein G magnetic Dynal beads (Life Technologies), washed, eluted, reverse crosslinked, and treated with RNAse A followed by proteinase K. ChIP DNA was purified using Ampure XP beads (Beckmann Coulter) and then used to prepare sequencing libraries for sequencing with the Next-Seq Illumina genome analyzer. Reads were aligned to hg19 using BWA (Li and Durbin, 2009) and identical ChIP-seq sequence reads were collapsed to avoid PCR duplicates. In order to avoid possible saturation biases, reads were downsampled to approximately similar numbers ( 20 million reads). […] Quantification of the H3K27me3 ChIP-seq signals, using fore- and background normalization, was essentially performed as outlined in (Zhu et al., 2013) with few modifications. To exclude genomic regions with potential copy number aberrations, read counts derived from whole cell extracts ChIP-seq within 5 kb genomic windows were quantified. Read counts were performed using interval overlap functions of the R package Genomic Ranges (Lawrence et al., 2013). To compute normalization constants, all genomic windows with read counts equal to 0 or greater than 3 standard deviations from the mean were excluded from the analysis. For a given H3K27me3 ChIP-seq data set, the background constant was estimated as the median of the read count distribution within 5 kb windows overlapping the 5% most highly expressed genes, as active genes are considered to be devoid of repressive chromatin modifications. […]

GSC8^12d = assay: Cell growth assay (CELLTITER-GLO), GSC8 treated 12 days with dasatinib; assay type: cell-based, human; conditions: 4 day treatment
Experimental: as §1, §2

GSC8 PD0325901^Per = assay: Cell growth assay ([…]-GLO), MEK inhibitor persisters; assay type: cell-based, human; conditions: 4 day treatment; persisters from sustained MEK inhibition
Experimental: as §1, §2

KDMs = assay: qRT-PCR of KDM gene expression in GSC8; assay type: cell-based, human; conditions: 48 hr drug treatment in GSC8
Experimental: Whole RNA was extracted from 1-3×10^6 cells using the QIAGEN RNeasy kit according to the manufacturer's protocol. For qRT-PCR, total RNA was reverse-transcribed into cDNA (High Capacity cDNA Reverse Transcriptase Kit, Applied Biosystems) and qRT-PCR amplification was performed using fast SYBR Green Master Mix (Life Technologies) with specific PCR primers for genes of interest and 18S as an endogenous control. Relative quantification for each target was performed using the comparative Ct method (Applied Biosystems). For RNA-seq library preparation, Poly(A)^+ RNA was enriched using magnetic oligo(dT)-beads (Life Technologies) and libraries were prepared as previously described (Gifford et al., 2013). Sequences for qRT-PCR primers used are listed at Table 3.

GSC8 [2] = assay: Flow cytometry for Ki67 and EdU incorporation in GSC8; conditions: 1 μM

`C[C@H](NC(=O)Cc1cc(F)cc(F)c1)C(=O)N[C@H]1N=C(c2ccccc2)c2ccccc2N(C)C1=O` [Compound E] was tested, and the “growth, 12 day treatment” value (GSC8 [1]; 12 day treatment, naïve GSC8) was “little effect”, the “growth, 12 day treatment” value (GSC8^Per) was “preferentially sensitive” and the “growth, 12 day treatment” value (GSC8^Per; listed as Notch inhibitor (γ-secretase)) was “significantly reduced”.

`CCOC(=O)CCNc1cc(N2CCc3ccccc3CC2)nc(-c2ccccn2)n1` [GSKJ4] was tested, and the “H3K4me3 peak width / level” value (H3K4me3) was “did not significantly increase H3K4me3”, the “rescue of H3K27me3 loss associated with dasatinib treatment” value (H3K27me3; GSC8^12d, GSKJ4 1.5 μM, 8 d, after 4 days of dasatinib) was “rescued the dramatic H3K27me3 loss” and the “effect on pre-existing H3K27me3 landscape” value (H3K27me3; naïve GSC8, 1.5 μM, 8 d) was “negligible effects”. The “sensitivity / effect on cell growth (dose-response)” value (“sensitivity / effect on cell growth” below) (GSC8^12d) was “preferentially sensitive; also recorded: significantly compromised viability”, the “sensitivity / effect on cell growth” value (GSC8 [1]) was “well tolerated” and the “sensitivity / effect on cell growth” value (GSC8^Per) was “preferentially sensitive; also recorded: significantly compromised viability”. For the same molecule, the “sensitivity / effect on cell growth” value (GSC8 PD0325901^Per) was “preferentially sensitive”.

With `CCOC(=O)CCNc1cc(N2CCc3ccccc3CC2)nc(-c2cccnc2)n1` [GSKJ5] the “sensitivity / effect on cell growth” value (GSC8^Per) was “no preferential sensitivity; also recorded: Negligible differential effects”.

With `CCOC(=O)c1ccnc(CNCC(=O)N(CC)CCN(C)C)c1` [KDM5-C70] the “H3K4me3 peak width / level” value (H3K4me3) was “caused H3K4me3 peaks to expand; also recorded: H3K4me3 peak width increases”, the “rescue of H3K4me3 reduction associated with dasatinib treatment” value (H3K4me3; with 4 day dasatinib) was “partially rescued; also recorded: significantly attenuated H3K4me3 reduction” and the “sensitivity / effect on cell growth” value (GSC8^12d) was “subtle effects on proliferation”. The “sensitivity / effect on cell growth” value (GSC8 [1]) was “subtle effects on proliferation”, the “effect on dasatinib dose-response curve” value (GSC8 [1]; 4 day, GSC8 naïve simultaneously treated with KDM5-C70 2.5 μM vs vehicle) was “No significant effect” and the “sensitivity / effect on cell growth” value (GSC8^Per) was “subtle effects on proliferation”.

`O=C(NOC[C@H](O)CO)c1ccc(F)c(F)c1Nc1ccc(I)cc1F` [PD0325901] was tested, and the KDM gene expression (KDMs) was “KDM induction; also recorded: up-regulation of numerous KDMs” and the “sensitivity / effect on cell growth” value (GSC8 [1]) was “differentially sensitive”.

With `CC1(COc2ccc3c(c2)ncn3-c2ccc3cccc(N4CCC(N)CC4)c3n2)COC1` [crenolanib] the “sensitivity / effect on cell growth” value (GSC8 [1]) was “preferentially sensitive” and the “sensitivity / effect on cell growth” value (GSC8^Per) was “relatively insensitive; also recorded: tolerated higher concentrations”.

In the case of `Cc1nc(Nc2ncc(C(=O)Nc3c(C)cccc3Cl)s2)cc(N2CCN(CCO)CC2)n1` [dasatinib], the “H3K4me3 at cell cycle-associated promoters” value (H3K4me3; short-term dasatinib treatment) was “reduced”, the “H3K27me3 peaks after drug treatment” value (H3K27me3; GSC8^12d, GSC8^Per, GSC8 PD0325901^Per) was “strongly reduced” and the “cell cycle effect (Ki67 / EdU)” value (GSC8 [2]; 4 d) was “induced cell cycle arrest and G0 induction”. For the same molecule, the “Ki67^+ cells” value (GSC8 [2]; after 4 days of dasatinib, 93% in naïve) was 17%, the pIC50 (GSC8 [1]; Homo sapiens, 96 h) was ~8.00 and the “sensitivity / effect on cell growth” value (GSC8^Per) was “relatively insensitive; also recorded: tolerated higher concentrations”.
